Where a SMILES comes first, the peptide text is derived from it. Bridges are numbered along the chain shown (N, C = ends).

The nature of series [1]: absorbability study in mice, ELISA detection. It counts as in vivo. The note with it: CD1, mouse, serum, IV and oral, FIG. 10a, read-out: bioavailable. As for the experimental part:
To study the pharmacokinetics of SEQ ID NO:3, absorbability studies in mice were performed by administering SEQ ID NO:3 intravaneously via tail vein injection or orally by gavage to 8-week-old CD1 mice. Serum was collected from the animals at various time points and tested for the presence of SEQ ID NO:3 using a competitive enzyme-linked immunoabsorbent assay (Oxoid, ST EIA kit, Cat#TD0700). The assay utilized monoclonal antibodies against ST peptide (antibodies are provided in the Oxoid kit) and synthetically manufactured SEQ ID NO:3.
(In general: ELISA stands for enzyme-linked immunosorbent assay.)

Series [2] concerns WT and GC-C KO mice. The experiment in a line: colorectal distension under basal conditions in WT and GC-C KO mice. It counts as in vivo, mouse. The note with it: oral 0.01 and 0.3 μg/kg. As for the experimental part:
(§1) TNBS induced visceral hypersensitivity was assessed in WT and GC-C KO mice. Two groups (WT and GC-C KO) of male mice (22-25 g) were surgically prepared for electromyographic (EMG) recordings. Three electrodes were implanted in the striated muscles of the abdomen for EMG recording of abdominal contractions. Colorectal distension (CRD) was performed with a balloon inflated by 10s steps of 0.02 ml from 0 to 0.12 ml. Under basal conditions mice were submitted to control CRD (time 0) followed by oral administration of SEQ ID NO:3 (0.01 and 0.3 μg/kg) or vehicle only (distilled water, 1 ml) at 3 hours. One hour post dosing the CRD procedure was repeated. Abdominal EMG contractile response to colorectal distension in basal conditions in both WT and GC-C KO mice (12-14 mice per group) was determined in the absence of vehicle and SEQ ID NO:3, and the mean+/−standard error of the mean (SEM) is graphically depicted in FIG. 7c.

In another series the target is T1, intestinal GC-C receptor (Homo sapiens, UniProt P25092).
T1 construct: monolayers of T84 cells in 24-well plates; host or cells: T84 human colon carcinoma cells
T1 sequence (P25092 24-1073): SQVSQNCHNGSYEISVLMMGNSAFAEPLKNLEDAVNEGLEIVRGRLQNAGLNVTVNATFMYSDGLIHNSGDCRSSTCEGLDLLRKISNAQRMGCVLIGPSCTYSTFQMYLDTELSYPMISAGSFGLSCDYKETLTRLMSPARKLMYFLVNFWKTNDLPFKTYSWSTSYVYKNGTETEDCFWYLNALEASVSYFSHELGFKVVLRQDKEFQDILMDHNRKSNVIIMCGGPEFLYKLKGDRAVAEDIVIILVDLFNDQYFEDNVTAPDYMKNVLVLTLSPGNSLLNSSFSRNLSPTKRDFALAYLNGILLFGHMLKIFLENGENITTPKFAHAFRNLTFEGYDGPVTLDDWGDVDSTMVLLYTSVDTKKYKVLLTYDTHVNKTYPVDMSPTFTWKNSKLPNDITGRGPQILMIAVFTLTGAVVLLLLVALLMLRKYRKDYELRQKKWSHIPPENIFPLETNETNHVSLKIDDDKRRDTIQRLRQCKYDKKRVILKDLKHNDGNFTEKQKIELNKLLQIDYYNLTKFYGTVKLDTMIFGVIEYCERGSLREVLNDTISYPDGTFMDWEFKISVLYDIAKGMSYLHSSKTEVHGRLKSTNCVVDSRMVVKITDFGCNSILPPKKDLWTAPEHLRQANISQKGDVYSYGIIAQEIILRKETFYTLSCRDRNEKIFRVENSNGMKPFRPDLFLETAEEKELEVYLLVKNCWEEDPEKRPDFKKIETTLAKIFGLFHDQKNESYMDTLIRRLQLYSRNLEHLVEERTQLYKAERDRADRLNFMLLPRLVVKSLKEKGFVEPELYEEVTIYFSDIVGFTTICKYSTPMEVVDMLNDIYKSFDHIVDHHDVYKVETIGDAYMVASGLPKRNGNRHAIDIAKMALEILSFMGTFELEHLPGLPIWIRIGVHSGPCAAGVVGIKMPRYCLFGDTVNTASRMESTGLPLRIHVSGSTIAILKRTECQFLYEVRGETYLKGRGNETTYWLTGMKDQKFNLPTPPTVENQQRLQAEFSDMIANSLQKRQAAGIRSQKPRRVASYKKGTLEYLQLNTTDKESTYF
Nature of the series: intestinal GC-C receptor activity assay (cyclic GMP EIA) in T84 cells. The series is classed as cell-based. Particulars: chemically synthesized peptides, FIGS. 2a and 2b. As for the experimental part:
The ability of SEQ ID NO:5, SEQ ID NO:4, SEQ ID NO:3, and SEQ ID NO:6 to activate the intestinal GC-C receptor was assessed in an assay employing the T84 human colon carcinoma cell line (American Type Culture Collection (Bethesda, Md.)). For the assays cells were grown to confluency in 24-well culture plates with a 1:1 mixture of Ham's F12 medium and Dulbecco's modified Eagle's medium (DMEM), supplemented with 5% fetal calf serum and were used at between passages 54 and 60.
Briefly, monolayers of T84 cells in 24-well plates were washed twice with 1 ml/well DMEM, then incubated at 37° C. for 10 min with 0.45 ml DMEM containing 1 mM isobutylmethylxanthine (IBMX), a cyclic nucleotide phosphodiesterase inhibitor. Test peptides (50 μl) were then added and incubated for 30 minutes at 37° C. The media was aspirated and the reaction was then terminated by the addition of ice cold 0.5 ml of 0.1N HCl. The samples were held on ice for 20 minutes and then evaporated to dryness using a heat gun or vacuum centrifugation.

A further series deals with mice. The experiment in a line: murine gastrointestinal transit (GIT) assay, acute dosing. It counts as in vivo, mouse. As to the method:
In order to determine whether the peptides increase the rate of gastrointestinal transit, the peptides and controls were tested using a murine gastrointestinal transit (GIT) assay (Moon et al. Infection and Immunity 25:127, 1979). In this assay, charcoal, which can be readily visualized in the gastrointestinal tract is administered to mice after the administration of a test compound. The distance traveled by the charcoal is measured and expressed as a percentage of the total length of the […].
Mice were fasted with free access to water for 12 to 16 hours before the treatment with peptide or control buffer. The peptides were orally administered at 1 μg/kg-1 mg/kg of peptide in buffer (20 mM Tris pH 7.5) 7 minutes before being given an oral dose of 5% Activated Carbon (Aldrich 242276-250G). Control mice were administered buffer only before being given a dose of Activated Carbon. After 15 minutes, the mice were sacrificed and their intestines from the stomach to the cecum were dissected. The total length of the intestine as well as the distance traveled from the stomach to the charcoal front was measured for each animal and the results are expressed as the percent of the total length of the intestine traveled by the charcoal front. All results are reported as the average of 10 mice±standard deviation. A comparison of the distance traveled by the charcoal between the mice treated with peptide versus the mice treated with vehicle alone was performed using a Student's t test and a statistically significant difference was considered for P<0.05. P-values are calculated using a two-sided T-Test assuming unequal variances.

In series [3] the test system is wild-type or GC-C KO mice. The note with it: 5 μg into loop, FIG. 17a.
Method: The effect of SEQ ID NO:3 on cGMP levels and secretion were studied by injecting SEQ ID NO:3 directly into an isolated loop in either wild-type or GC-C KO mice. This was done by surgically ligating a loop in the small intestine of the mouse. […] The loop was roughly centered and was a length of 1-3 cm. The loops were injected with 100 μl of either SEQ ID NO:3 (5 μg) or vehicle (20 mM Tris, pH 7.5 or Krebs Ringer, 10 mM Glucose, HEPES buffer (KRGH)). Following a recovery time of 90 minutes the loops were excised. Weights were recorded for each loop before and after removal of the fluid contained therein. The length of each loop was also recorded. A weight to length ratio (W/L) for each loop was calculated to determine the effects of SEQ ID NO:3 on secretion.
To determine the effect of SEQ ID NO:3 on cGMP activity, fluid from the loop was collected in ice-cold trichloracetic acid (TCA) and stored at −80° C. for use in an assay to measure cGMP levels in the fluid. Intestinal fluid samples were TCA extracted, and cyclic GMP was measured by EIA according to procedures outlined in the Cayman Chemical Cyclic GMP EIA kit (Cayman Chemical, Ann Arbor, Mich.) to determine cyclic GMP levels in the intestinal fluid of the mouse in the presence of either SEQ ID NO:3 or vehicle.
For a further series, the system named is Female CD rats. The experiment in a line: ligated loop model in rats (cGMP, secretion). It counts as in vivo. Particulars: center loop of the rat small intestine, 5 μg, FIG. 17b. The text has this: In the case of the rat, however four loops of intestine were surgically ligated. The first three loops were distributed equally in the small intestine and the fourth loop was located in colon. […] SEQ ID NO:3 increases cGMP levels and secretion in the center loop of the rat small intestine as shown in FIG. 17b (n=9-10 animal per group for secretion assays; n=7-8 animals for cGMP assays).

The test system of a further series is mouse. Nature of the series: phenylbenzoquinone (PBQ)-induced writhing model. Particulars: oral; SEQ ID NO:5 1 mg/kg, SEQ ID NO:3 2.5 mg/kg; versus vehicle control, FIGS. 8a, 8b. (In general: An intraperitoneal irritant provokes the stretching counted in writhing tests.)
Series [4] relates to WT and GC-C KO mice. Nature of the series: TNBS visceral hypersensitivity model in WT and GC-C KO mice. The series is classed as in vivo, mouse. The note with it: oral 0.01 μg/kg, FIG. 7d. As to the method: as §1
For TNBS induced visceral hypersensitivity conditions, mice were submitted to control CRD (time 0) and TNBS (20 mg/kg) was administered at 3 days. […] The effect of SEQ ID NO:3 ([…]) on abdominal response to colorectal distension after TNBS in WT and GC-C KO mice (12-14 per group) at a volume distension of […] was determined and the mean+/−standard error of the mean (SEM) is graphically depicted in FIG. 7d.

`C[C@@H]1NC(=O)[C@@H]2CCCN2C(=O)[C@H](CC(N)=O)NC(=O)[C@@H]2CSSC[C@H](N)C(=O)N[C@H]3CSSC[C@H](NC1=O)C(=O)N[C@@H]([C@@H](C)O)C(=O)NCC(=O)N[C@H](C(=O)N[C@@H](Cc1ccc(O)cc1)C(=O)O)CSSC[C@H](NC(=O)[C@H](Cc1ccc(O)cc1)NC(=O)[C@H](CCC(=O)O)NC3=O)C(=O)N2` [SEQ ID NO:3] (H-CCEYCCNPACTGCY-OH; disulfide 1-6, 2-10, 5-13; N-terminus and C-terminus assumed): the bioavailability in series [1] is under 2.2%. Moreover, the “EMG response to colorectal distension” value with WT and GC-C KO mice [2] is reported as “decreased the EMG response to colorectal distension”. The “activity in GC-C receptor activity assay” value on intestinal GC-C receptor was “activity comparable to SEQ ID NO:4”. Further, the “intestinal transit rates versus Tris buffer and Zelnorm” value in the series with mice (chemically synthesized peptides, FIG. 4b) is on record as “increase intestinal transit rates more than either Tris buffer alone or an equivalent dose of Zelnorm®”. Also, the gastrointestinal transit rate entry in the series on mice (oral, SEQ ID NO:4 0.1 mg/kg, Zelnorm 0.1 mg/kg, FIG. 3a, 3b) is given as “increase gastrointestinal transit rate”. Moreover, in series [3], the “cGMP activity in ligated loop fluid” value was “no effect” and the “secretion (loop weight to length ratio)” value is given as “no effect”. Moreover, in the series on Female CD rats, the “cGMP levels in ligated loop” value is recorded as “increases” and the “secretion in ligated loop” value is recorded as “increases”. The writhings result with mouse is “Significant reductions in writhings”. Moreover, the “TNBS induced hypersensitivity to CRD” value in the series on WT and GC-C KO mice [4] (GC-C KO mice) is given as “A similar effect was not observed”. In addition, the “TNBS induced hypersensitivity to CRD” value in the series with WT and GC-C KO mice [4] (WT mice) is on record as “reduces the TNBS induced hypersensitivity to CRD”.
